Assay: xn = mol fraction of the nth substance listed
Conditions: 100 kPa, x2 = 0

CCO + CCCC[n+]1ccn(C)c1.O=S(=O)([N-]S(=O)(=O)C(F)(F)F)C(F)(F)F
Conditions | viscosity [mPa·s]
293 K | 1.19
293.3 K | 1.18
293.61 K | 1.18
293.91 K | 1.17
294.21 K | 1.17
294.52 K | 1.16
294.82 K | 1.16
295.12 K | 1.15
295.42 K | 1.15
296.03 K | 1.14
296.33 K | 1.13
296.64 K | 1.13
297.24 K | 1.12
298.45 K | 1.09
298.76 K | 1.09
299.06 K | 1.08
299.36 K | 1.08
299.67 K | 1.07
299.97 K | 1.07
300.27 K | 1.06
300.58 K | 1.06
300.88 K | 1.05
301.18 K | 1.05
301.79 K | 1.04
302.09 K | 1.03
302.39 K | 1.03
303 K | 1.02
303.61 K | 1.01
303.91 K | 1
304.52 K | 0.99
304.82 K | 0.99
305.12 K | 0.98
305.42 K | 0.98
305.73 K | 0.97
306.33 K | 0.96
306.64 K | 0.96
306.94 K | 0.95
307.24 K | 0.95
307.55 K | 0.94
307.85 K | 0.94
308.15 K | 0.93
308.45 K | 0.93
308.76 K | 0.92
309.06 K | 0.92
309.36 K | 0.91
309.97 K | 0.9
310.27 K | 0.9
310.88 K | 0.89
311.18 K | 0.88
311.48 K | 0.88
311.79 K | 0.87
312.09 K | 0.87
312.39 K | 0.86
313.91 K | 0.84
314.21 K | 0.84
314.52 K | 0.83
314.82 K | 0.83
315.12 K | 0.82
315.42 K | 0.82
315.73 K | 0.81
316.03 K | 0.81
316.64 K | 0.8
316.94 K | 0.8
317.24 K | 0.79
317.55 K | 0.79
317.85 K | 0.78
318.15 K | 0.78
318.76 K | 0.77
319.06 K | 0.77
319.97 K | 0.75
320.27 K | 0.75
320.58 K | 0.74
321.18 K | 0.73
321.79 K | 0.73
322.09 K | 0.72
322.39 K | 0.72
322.7 K | 0.71
323 K | 0.71
